Measurements as given in patent publication US9539272B2, “HDAC 6 inhibitor-based methods for treating cancer” (SLOAN-KETTERING INSTITUTE FOR CANCER RESEARCH, priority 2009, dated 2017).

Key:
[1] = tested on: acetylated tubulin and acetylated histone H3 in A549 cells; conditions: 24 hrs, tubacin 0.2, 2 or 20 μM; cited from earlier work
[2] = tested on: acetylated α-tubulin and acetylated histone H3 in LNCaP cells; test: Accumulation of acetylated α-tubulin and acetylated histone H3 in LNCaP cells (Western blot); format: cell-based, human; conditions: BAHA 1.0 or 1.5 μM, SAHA 1.5 and 2.0 μM
Procedure: 2×10^6 transformed cells were cultured for 24 hrs in a 10 cm tissue culture dish with 10 ml RPMI 1640 medium. HDAC inhibitors and/or other agents were added in concentrations as indicated for each study to the cultures and cell cultured for times indicated. Cells were harvested by scrapping, washed once with PBS, lyzed with histone extraction buffer (1 ml/10^7 cells), which contains 10 mM MgCl2, 10 mM Tris, 25 mM KCl, 1% Triton X-100, 8.6% sucrose and protease inhibitor cocktail (Roche Diagnostics Gmbh, Indianapolis, Ind.), pH 6.5. Cells were centrifuged at 600 g at 4° C. for 5 mins. The supernatants were saved as cell lyates. The pellets (nuclei) were washed once with TE buffer, suspended in 0.4 NH2SO4 (100 μl/10^7 cells), incubated for 1 hr on ice, and centrifuged at 10,000 g for 10 mins at 4° C. The supernatant was collected, mixed with 1 ml acetone, incubated at −20° C. for more than 1 hr, and centrifuged at 10,000 g for 10 mins at 4° C. The pellets were suspended in water (100 μl/10^7 cells). The protein concentrations were measured with Braford reagent (Bio-Rad, Hercules, Calif.).
1×10^6 cells in a 10 cm diameter cell culture dish were washed with PBS, harvested by trypsinization in 0.05% trypsin for LNCaP and 0.25% trypsin for MCF7, A549, HFS and WI38 resuspended in RIPA at 50 μl for every 1×10^6 cells. Antibodies used were: anti-acetylated tubulin (Sigma), anti-HDAC 6 (Santa Cruz Biotechnology), and anti-tubulin (Calbiochem), (Xu et al. Cancer Research, 65:7832-7839, 2005).

[3] = tested on: MCF-7 cells; test: Cell growth and viability by trypan blue exclusion, MCF-7; format: cell-based, human; conditions: MCF-7, 72 hrs; 8 μM tubacin, 5 μM SAHA, […] doxorubicin, 100 μM etoposide, alone or plus 8 μM tubacin
Procedure: (§1) 5×10^4 cells were seeded per well in a 24-well plate and cultured overnight prior to treating with the compound and/or other agents as indicated for each study. Cells were harvested at 24, 48 and 72 hrs after treatment by trypsin digestion. […] At least three independent analyses were performed for each time point.
(§2) To monitor cell growth and viability, cells were seeded in triplicate at 5×10^4 cells in 1 ml of medium in 24-well plates. The drugs were added at the indicated concentrations 24 h after seeding. Cells were harvested by trypsin digestion at 24 h, 48 h and 72 h following drug additions. Cell number and viability were determined by trypan blue exclusion.

[4] = tested on: HFS cells; test: Cell viability, normal human foreskin cells (HFS); format: cell-based; conditions: 8 μM tubacin, 5 μM SAHA, alone or together
Procedure: as §1, §2

[5] = tested on: WI38 cells; test: Cell viability, normal human embryonic fibroblast WI38; format: cell-based; conditions: 8 μM tubacin, 5 μM SAHA, alone or together
Procedure: as §1

[6] = tested on: LNCaP HDAC 6 knockdown cells; test: Cell viability, LNCaP HDAC 6 knockdown cells; format: cell-based, human; conditions: 72 hrs
Description: shRNA lentiviral particles targeting different regions of HDAC6 mRNA, HDAC6 KD1 (HDAC6 knockdown 1) at 1.7×10^7 TU/ml and HDAC6 KD2 (HDAC6 knockdown 2) at 1.9×10^7 TU/ml, and a non-targeting ‘scramble’ shRNA control particles (#SHC002V) at 1.1×10^7 TU/ml, were purchased from Sigma-Aldrich and transfected according to the manufacturer's instructions using polybrene (Millipore). The 21-nucleotide sequence corresponding to HDAC6 mRNA for HDAC6 KD1 is 5′-[…]-3′ and for HDAC6 KD2 is 5′-[…]-3′. For each shRNA, 5×10^5 cells were infected at an MOT of 2.

[7] = tested on: γH2AX; test: Accumulation of γH2AX in LNCaP cells (Western blot, ImageJ quantitation); format: cell-based, human; conditions: 24 h
Procedure: (§3) 1×10^6 cells were seeded in a 10 cm diameter cell culture dish and cultured overnight prior to addition of the indicated drugs, washed with PBS, harvested by trypsinisation and lysed in RIPA buffer (50 mM Tris-HCL pH8.0, 120 mM NaCl, 0.5 mM EDTA, 0.5% NP-40). […] Quantitation of western blots was performed using ImageJ.

[8] = tested on: phospho-Chk2; test: Accumulation of phospho-Chk2 in LNCaP cells (Western blot); format: cell-based, human; conditions: 24 h
Procedure: as §3

[9] = tested on: LNCaP cells; test: Microarray analysis of gene expression in LNCaP cells; format: cell-based, human; set-up: Total gene number: dose or concentration left out as unconfirmed
Procedure: Alterations in gene expression were evaluated by microarray using the Illumina human cDNA array containing cDNA probes representing the whole genome (10000 genes). […] Triplicate samples were prepared for each drug treatment at each time point. Poly(A)+ mRNA was isolated from cells using Trizol reagent according to manufacturer's protocol (Invitrogen). The data was analyzed using the Bioconductor packages (www.bioconductor.com) for the R statistical system. The output from Beadstudio was processed using the LUMI package. The normalization method used was quantile and the signal levels were log (base 2) transformed. To determine genes that are differentially expressed between the various sample types, the LIMMA package was used.

[10] = tested on: LNCaP cells; test: Quantitative real-time PCR in LNCaP cells; format: cell-based, human; conditions: quantitative real-time PCR
Procedure: […] of total RNA was reverse-transcribed using the Thermoscript RT-PCR system (Invitrogen) at 52° C. for 1 h. 20 ng of resultant cDNA was used in a Q-PCR reaction using an 7500 Real-Time PCR System (Applied Biosystems) using predesigned primers for DDIT3, DDIT4, Mcm4, Mcm6, Cdt1, Psf2 and GAPDH (Applied Biosystems). Amplification was carried for 40 cycles (95° C. for 15 sec, 60° C. for 1 min). To calculate the efficiency of the PCR reaction, and to assess the sensitivity of each assay, we performed a 6 point standard curve (5, 1.7, 0.56, 0.19, 0.062, and 0.021 ng). Triplicate CT values were averaged, amounts of target were interpolated from the standard curves and normalized to GAPDH (assay Hs99999909_m1).

[11] = tested on: LNCaP cells; test: Cell cycle analysis by flow cytometry, LNCaP; format: cell-based, human; conditions: 24 h, propidium iodide
Procedure: Cells were harvested at 24 h culture with the indicated drugs, washed with PBS and fixed in methanol. Cells were then resuspended in a buffer containing […] propidium iodide and […] RNase A. Samples were analysed by flow cytometry using a Becton Dickinson FACSCalibur flow cytometer. Data were collected for 10,000 events and analyzed using FlowJo software.

[12] = tested on: PARP; test: PARP cleavage in LNCaP cells (Western blot); conditions: 48 h
Procedure: as §3

[13] = tested on: LNCaP cells; test: Cell growth and viability by trypan blue exclusion, LNCaP
Procedure: as §1, §2

[14] = LNCaP, 25 μM or 50 μM SAHA, 72 hrs

Structure (SMILES): CC(/C=C/C(=O)NO)=C\[C@@H](C)C(=O)c1ccc(N(C)C)cc1 [Trichostatin A]
- accumulation of acetylated histone H3 [1]: caused the accumulation
- accumulation of acetylated tubulin [1]: caused the accumulation

Structure (SMILES): O=C(CCCCCCC(=O)Nc1ccccc1)NO [SAHA, Suberoylanilide Hydroxamic Acid]
- accumulation of acetylated histone H3 [2]: caused an increase in accumulation
- accumulation of acetylated α-tubulin [2]: caused an increase in accumulation
- cell death [3]: 40%
- rate of cell growth [3]: markedly decreased
- cell death [4]: did not cause cell death
- cell death [5]: did not cause cell death
- cell death ([6]; LNCaP HDAC 6 knockdown, 2.5 μM SAHA): 25%
- cell death ([6]; LNCaP HDAC 6 knockdown, 5.0 μM SAHA): 80%
- accumulation of γH2AX [7]: increased
- level of phospho-Chk2 [8]: increase of phospho-Chk2
- DDIT3 gene expression change ([9]; 2 h): 2.18 fold
- DDIT4 gene expression change ([9]; 2 h): * (No detectable change of ≧2-fold)
- Total gene number ([9]; 2 h, genes changed ≧2-fold): 37
- Downregulated genes ([9]; 2 h, ≧2-fold): 16
- Upregulated genes ([9]; 2 h, ≧2-fold): 21
- DDIT4 gene expression change ([9]; 8 h): 5.36 fold
- Downregulated genes ([9]; 8 h, ≧2-fold): 302
- Total gene number ([9]; 8 h, ≧2-fold): 628
- Upregulated genes ([9]; 8 h, ≧2-fold): 326
- DDIT4 gene expression change ([9]; 24 h): 3.81 fold
- Downregulated genes ([9]; 24 h, ≧2-fold): 989
- Total gene number ([9]; 24 h, ≧2-fold): 1951
- Upregulated genes ([9]; 24 h, ≧2-fold): 962
- expression of Mcm4, Mcm6, Cdt1 and Psf2 [10]: downregulated
- cell cycle distribution [11]: increase in both G1 and G2 arrested cells
- PARP cleavage ([12]; 2.5 mM SAHA): did not result in PARE cleavage
- PARP cleavage ([12]; 5 mM SAHA): resulted in PARP cleavage
- cell death ([13]; LNCaP, 1.25 μM SAHA, alone or plus 1 μM BAHA, 72 hrs): no detectable cell death
- cell death ([13]; LNCaP, 2.5 μM SAHA, alone or plus 1 μM BAHA, 72 hrs): less than 10%
- cell death ([13]; LNCaP, 2.5 μM SAHA, alone or with 8 μM tubacin, 72 hrs): no detectable
- cell death ([13]; LNCaP, 5 μM SAHA, alone or plus 1 μM BAHA, 72 hrs): 65%
- cell death ([13]; LNCaP, 5 μM SAHA, alone or with 8 μM tubacin, 72 hrs): 45%
- cell death [13, 14]: 100%
- cell growth [13, 14]: growth inhibition
- rate of cell growth ([13]; LNCaP, 2.5, 5 or […] SAHA, alone or plus 8 μM tubacin): markedly decreased
- cell death ([13]; LNCaP, […] SAHA, alone or plus 8 μM tubacin, after 8 hrs): 40%
- cell death ([13]; wild type LNCaP, 2.5 μM SAHA, 72 hrs (knockdown comparison)): no cell death
- cell death ([13]; wild type LNCaP, 5.0 μM SAHA, 72 hrs (knockdown comparison)): 35%

Structure (SMILES): COc1cccc2c1C(=O)c1c(O)c3c(c(O)c1C2=O)C[C@@](O)(C(=O)CO)C[C@@H]3O[C@H]1C[C@H](N)[C@H](O)[C@H](C)O1 [doxorubicin]
- cell death [3]: 25%
- rate of cell growth [3]: markedly decreased
- cell death ([6]; LNCaP HDAC 6 knock down, 10 nM doxorubicin): 85%
- cell death ([6]; LNCaP HDAC 6 knock down, 100 nM doxorubicin): 90%
- cell death ([6]; LNCaP HDAC 6 knock down, 500 nM doxorubicin): 95%
- cell death ([13]; LNCaP, 5 nM doxorubicin, alone or plus 8 μM tubacin, 48 hrs): 40%
- rate of cell growth ([13]; LNCaP, 10 nM doxorubicin, alone or plus 8 μM tubacin): decreased
- cell death ([13]; LNCaP, […] doxorubicin, alone or plus 8 μM tubacin, 48 hrs): 80%
- cell death ([13]; wild type LNCaP, 10 nM doxorubicin, 72 hrs): 45%
- cell death ([13]; wild type LNCaP, 100 nM doxorubicin, 72 hrs): 75%
- cell death ([13]; wild type LNCaP, 500 nM doxorubicin, 72 hrs): 85%
